The METLIN SMRT retention time set (Domingo-Almenara et al. 2019)

Test: gradient 5% acetonitrile 3 min, to 50% in 2 min, to 85% in 15 min, held 3 min, 100 µL/min
Settings: column: Zorbax Extend-C18 2.1 x 50 mm; eluents: water / acetonitrile, 0.1% formic acid
Procedure, shortened: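 Retention time was recorded from adduct peaks, which were picked computationally and each inspected manually. Pure standards ran in mixtures of ~100 molecules on HPLC coupled to a quadrupole time-of-flight mass spectrometer, in positive and negative ionization mode, through a Zorbax Extend-C18 column (2.1 × 50 mm, 1.8 μm) at 100 μL/min. Eluents were water and acetonitrile, each with 0.1% formic acid.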

CCS(=O)(=O)N1CC(=O)N(c2ccccc2C)C(C)(C(=O)NCc2ccc(F)cc2)C1 (centres undefined)
RP-LC retention time: 809 s

COc1cccc(CC(=O)NC(CC(C)C)C(=O)Nc2nc3ccccc3[nH]2)c1 (centres undefined)
RP-LC retention time: 721 s

CCn1cc(-c2nc(C(=O)Nc3ccc(F)cc3C)cs2)c2cccnc21
RP-LC retention time: 1000 s

CCNC(=O)C1CCCN(c2nc3ncn(CC(=O)Nc4ccc(C)c(C)c4)c(=O)c3s2)C1 (centres undefined)
RP-LC retention time: 711 s

COc1ccccc1CNS(=O)(=O)c1cc(-c2[nH]ncc2C(=O)N(C)C)oc1C
RP-LC retention time: 666 s

Cc1ccccc1-c1noc(Cn2ccn(-c3ccc(Cl)cc3)c(=O)c2=O)n1
RP-LC retention time: 918 s

CC(C)C(C(=O)O)N1C(=O)c2cccc3cccc(c23)C1=O (centres undefined)
RP-LC retention time: 795 s

Cc1ccc(S(=O)(=O)N2CCC3(CC2)NCCN=C3NCc2ccccc2F)cc1
RP-LC retention time: 709 s

COc1ccc(-c2nc(C)cc(C)c2CNC(=O)C(C)(C)C)cc1
RP-LC retention time: 613 s

Cc1ccn2cc(C(=O)NCc3ccc(Cl)cc3)nc2c1
RP-LC retention time: 704 s

CC(C)CCNC(=O)c1cn2ccccc2n1
RP-LC retention time: 656 s

Cc1ccc2c(c1)C(=O)NC1(CCN(C(=O)c3ccccc3)CC1)N2C
RP-LC retention time: 748 s

Fc1ccc(-c2nc(-c3cn(-c4ccccc4)nn3)no2)cc1
RP-LC retention time: 607 s

Cc1noc(-c2ccc(NC(=O)c3cccs3)cc2)n1
RP-LC retention time: 776 s

Cc1nnc(C(C)C)n1C1CC2CCC(C1)N2CC[C@H](NC(=O)C1CCC(F)(F)CC1)c1ccccc1 (some centres undefined)
RP-LC retention time: 674 s

COc1ccc(OCc2noc(CNC(=O)Nc3ccc(Cl)c(Cl)c3)n2)cc1
RP-LC retention time: 917 s

COCCN1C(=O)c2ccccc2C(C(=O)NCCc2ccccc2)C12CCCC2 (centres undefined)
RP-LC retention time: 827 s

N#Cc1ccc(C(=O)NC(c2ccccc2)c2nnc(N3CCCC3)o2)cc1 (centres undefined)
RP-LC retention time: 765 s

COC(=O)C1=CN(c2ccc(F)c(F)c2)c2ccccc2S1(=O)=O
RP-LC retention time: 789 s

Cc1nc(-c2cn(C(C)C)c3ncccc23)sc1C(=O)NCC(C)C
RP-LC retention time: 975 s

O=C(NCC1CCS(=O)(=O)C1)c1nc2ccccc2s1 (centres undefined)
RP-LC retention time: 659 s

CC1CCCCN1c1nc(-c2ccc([N+](=O)[O-])cc2)nc2ccccc12 (centres undefined)
RP-LC retention time: 948 s

COc1ccc(-c2noc(CN3C(=O)COc4ccccc43)n2)cc1OC
RP-LC retention time: 882 s

Cc1cc(C)n(-c2nc(CC(=O)Nc3ccc(N(C)C)cc3)cs2)n1
RP-LC retention time: 650 s

Cc1ccc(C(=O)NCC2CCCN(S(=O)(=O)c3c(C)cc(C)cc3C)C2)cc1 (centres undefined)
RP-LC retention time: 1060 s

CCC(=O)N1CCc2cc(N3CC(C(=O)Nc4ccccc4F)CC3=O)ccc21 (centres undefined)
RP-LC retention time: 741 s

CCS(=O)(=O)N1CC(=O)N(c2ccc(F)cc2)C(C)(C(=O)NCc2ccccc2)C1 (centres undefined)
RP-LC retention time: 778 s

O=C(Nc1cccc(C(F)(F)F)c1)NC1(c2nc(C3CC3)no2)CCCCC1
RP-LC retention time: 1030 s

CN(C)c1ccc2c(c1)CN(C(=O)Cn1c(=O)oc3ccccc31)CCO2
RP-LC retention time: 621 s

Cc1ccc(S(=O)(=O)Nc2ccc(-c3cn4ccccc4n3)cc2)cc1[N+](=O)[O-]
RP-LC retention time: 662 s

O=C(Nc1cccc(-c2nnc3n2CCCC3)c1)c1nccc2ccccc12
RP-LC retention time: 769 s

CCCN1C(=O)COc2ccc(-c3noc(-c4cncc(Br)c4)n3)cc21
RP-LC retention time: 1160 s

CCN1C=C(C(=O)OCc2cccc(C)c2)C(C)=NS1(=O)=O
RP-LC retention time: 1030 s

Cn1nc(-c2nnc(-c3ccc(F)cc3)o2)c2c1CCN(S(=O)(=O)c1ccc(C#N)cc1)C2
RP-LC retention time: 894 s

Cc1ccc(-c2nc3ncccn3c2Nc2ccc(Cl)cc2)cc1
RP-LC retention time: 827 s

O=C(Nc1cccc(Br)c1)C1CCN(c2cc(N3CCCC3)ncn2)CC1
RP-LC retention time: 722 s

CCCN(CCC)C(=O)C(CCC(=O)O)NC(=O)c1ccccc1 (centres undefined)
RP-LC retention time: 822 s

O=C(NCc1cccnc1)C1CCN(C(=O)c2ncn3c2COC(c2ccccc2)C3)CC1 (centres undefined)
RP-LC retention time: 568 s

O=C(NCCc1csc(-c2cccc(F)c2)n1)c1cccs1
RP-LC retention time: 905 s

COc1cccc(C(O)CN2CCN(c3ccccc3C)CC2)c1 (centres undefined)
RP-LC retention time: 691 s

Nc1cc(C2CCN(C(=O)Nc3cccc(Cl)c3F)CC2)no1
RP-LC retention time: 676 s

CCn1nc(C)c(CNC(=O)Nc2cccc(C(=O)OC)c2)c1C
RP-LC retention time: 663 s

Cc1ccc(NC(=O)C2CC(=O)N(c3cccc(NC(=O)C(C)C)c3)C2)cc1Cl (centres undefined)
RP-LC retention time: 872 s

CC1=NS(=O)(=O)N(C)C=C1C(=O)OCc1nc(-c2ccc(F)cc2)no1
RP-LC retention time: 952 s

Cc1ccc(NC(=O)CN2C(=O)NC3(CCCCC3)C2=O)cc1C
RP-LC retention time: 792 s

Cc1c(F)cccc1NC(=O)N1CCC(n2cnnc2C2CC2)C1 (centres undefined)
RP-LC retention time: 655 s

C=CCNC(=O)NC1CCN(C2=NS(=O)(=O)C(c3ccccc3)=C2C)CC1
RP-LC retention time: 705 s

COc1cccc2cc(-c3nnc(NC(=O)c4ccc5ncsc5c4)o3)oc12
RP-LC retention time: 725 s

Cc1nnc(-c2coc(S(=O)(=O)N3CCN(CC(C)C)CC3)c2)o1
RP-LC retention time: 587 s

Cc1ccc(Cl)c2c1NC(=O)C2(O)CC(=O)c1ccc(F)cc1 (centres undefined)
RP-LC retention time: 786 s

CC(=O)N1CCc2cc(C)c(S(=O)(=O)Nc3cccc(F)c3)cc21
RP-LC retention time: 731 s

CCC(=O)N1CC(=O)N(CC)C2(CCOCC2)C1
RP-LC retention time: 561 s

O=C(Cc1ccccc1Br)NC1CCN(c2cc(-c3cccs3)[nH]n2)C1 (centres undefined)
RP-LC retention time: 689 s

Cn1cc2c3c(cccc31)CN(C(=O)Nc1ccc(Cl)cc1F)CC2
RP-LC retention time: 1250 s

CC(NCC(O)COc1c(F)cc(Br)cc1F)c1ccccc1 (centres undefined)
RP-LC retention time: 618 s

COc1cccc(CN2C[C@@H]3C(=O)N(Cc4ccc5c(c4)OCO5)C(=O)[C@@H]3C2)c1OC
RP-LC retention time: 704 s

CCOC(=O)c1ccccc1NC(=O)N1CCN(c2ccc(=O)n(-c3ccccc3)n2)CC1
RP-LC retention time: 995 s

COC(=O)c1c(-c2cccc(F)c2)noc1NCc1ccc(OC)cc1OC
RP-LC retention time: 548 s

Cc1ccc(-c2nc(NC(=O)c3cc4ccccc4o3)sc2C)cc1
RP-LC retention time: 1220 s

O=C(NCc1ccco1)C1CCN(c2cnc3nccnc3c2)CC1
RP-LC retention time: 629 s

CCn1c(=O)c(N2CCC(C(=O)NCCCN3CCCC3=O)CC2)nc2ccccc21
RP-LC retention time: 643 s

Cc1ccn2cc(-c3ccc(NC(=O)c4cccs4)cc3)nc2n1
RP-LC retention time: 636 s

O=C(C1COc2ccccc2O1)N1CCN(c2cc(-c3cccs3)[nH]n2)CC1 (centres undefined)
RP-LC retention time: 839 s

CC1CCc2nc3ncn(CC(=O)NCc4cccc(Br)c4)c(=O)c3cc2C1 (centres undefined)
RP-LC retention time: 825 s

O=C(Cn1c(=O)cc(C(=O)N2CCc3ccccc3C2)c2ccccc21)Nc1ccc2c(c1)OCCO2
RP-LC retention time: 831 s

Cn1cc(CCN2CCN(S(=O)(=O)c3ccc(F)c(Cl)c3)CC2)c2cccnc21
RP-LC retention time: 660 s

CC(C)c1noc(-c2cccnc2-n2cnc(C(=O)Nc3ccc(F)cc3)c2)n1
RP-LC retention time: 890 s

CCOc1ccc(NC(=O)C2(C)CCCCC(=O)N2)cc1 (centres undefined)
RP-LC retention time: 690 s

Cc1ccc(Cl)cc1NC(=O)N1CCC(n2cnc3c(C)cccc3c2=O)CC1
RP-LC retention time: 911 s

CCOC(=O)N1CCC(NC(=O)Cn2cc(-c3ccc(C)cc3)oc2=O)CC1
RP-LC retention time: 772 s

Cc1cccc(N2CCN(C(=O)c3cc4c(=O)n(C)ccc4n3C)CC2)c1C
RP-LC retention time: 818 s

Fc1ccc(-c2nnc(Cc3nc(-c4cccc(Cl)c4)no3)o2)cc1
RP-LC retention time: 1070 s

CCCCNC(=O)c1ccc2nc(CCc3ccc(NC(=O)CC)cc3)[nH]c2c1
RP-LC retention time: 570 s

O=C(c1cn2c(n1)CCCC2)N1CCN(c2ccc(Cl)cc2)CC1
RP-LC retention time: 648 s

Cc1nnc2ccc(S(=O)(=O)Nc3ccc(F)c(F)c3)cn12
RP-LC retention time: 692 s

Cc1cccc(CNC(=O)c2ccc3c(c2)nc2n3CCN(C3CCCCC3)C2=O)c1
RP-LC retention time: 824 s

CS(=O)(=O)c1ccc(Nc2ncccc2S(N)(=O)=O)cc1
RP-LC retention time: 668 s

CCCn1c(=O)sc2cc(S(=O)(=O)N3CCN(C(=O)c4ccnn4C)CC3)ccc21
RP-LC retention time: 792 s

CC(=O)N1CCc2cc(S(=O)(=O)C(C)CC(=O)N3CCN(c4cccc(C)c4C)CC3)ccc21 (centres undefined)
RP-LC retention time: 935 s

Cc1ccc(NC(=O)c2cccc([N+](=O)[O-])c2O)c(C)c1
RP-LC retention time: 951 s

COC(=O)[C@H](CCCN=C(N)N)NS(=O)(=O)c1ccc(C)cc1
RP-LC retention time: 667 s

Cc1ccc(NC(=O)c2ccc(=O)n(CCN3CCOCC3)c2)cc1
RP-LC retention time: 611 s

CC(C)Cn1cc(S(=O)(=O)Nc2cc(F)ccc2Cl)c2cccnc21
RP-LC retention time: 1020 s

CCN1C(=O)c2c(C(=O)NCCc3ccc(C)cc3)ncn2CC1(C)C(=O)NC1CCCC1 (centres undefined)
RP-LC retention time: 779 s

COc1cc(NC(=O)NCCc2c(C)nn(C)c2C)cc(OC)c1OC
RP-LC retention time: 610 s

CCCN1CCN(CCCNc2nc(-c3ccc(Cl)cc3)nc3ccccc23)CC1
RP-LC retention time: 584 s

COc1ccc(OC)c(NC(=O)N2CCC(N3CCN(Cc4ccc(F)cc4)C(=O)C3=O)CC2)c1
RP-LC retention time: 773 s

Cc1ccc(CNC(=O)C2(C)CCCN(C(=O)Nc3cccc(Br)c3)C2)cc1 (centres undefined)
RP-LC retention time: 1070 s

Cc1cc2oc(C(=O)Nc3ccccc3[N+](=O)[O-])c(C)c2cc1C
RP-LC retention time: 1090 s
